Measurements taken from ChEMBL document CHEMBL1201862, “PubChem BioAssay data set” (2004).
Structures can show the parent of a compound that is named as a salt.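 All cell lines were grown in 96-well plates and treated with compound for 48 hours. The concentration for 50% growth inhibition is given as GI50.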 Activity calls are given as the source filed them. No stated cut-off is given here; in the data, active = GI50 up to about 1.1 µM and inactive = higher.

How the values were obtained:
Assay in all cases: inhibition of tumour cell growth, NCI panel, 48 h
KM12 = test system: KM12
IGROV-1 = test system: IGROV-1
SK-MEL-28 = test system: SK-MEL-28
DU-145 = test system: DU-145
U-251 = test system: U-251
COLO 205 = test system: COLO 205
K562 = test system: K562
SN12C = test system: SN12C
HOP-92 = test system: HOP-92
MOLT-4 = test system: MOLT-4
A549 = test system: A549
SK-MEL-5 = test system: SK-MEL-5
NCI-H23 = test system: NCI-H23
MDA-N = test system: MDA-N
MDA-MB-231 = test system: MDA-MB-231
HCC 2998 = test system: HCC 2998
SR = test system: SR
SNB-19 = test system: SNB-19
T47D = test system: T47D
SNB-75 = test system: SNB-75

Row | SMILES | GI50 (KM12) | GI50 (IGROV-1) | GI50 (SK-MEL-28) | GI50 (DU-145) | GI50 (U-251) | GI50 (COLO 205) | GI50 (K562) | GI50 (SN12C) | GI50 (HOP-92) | GI50 (MOLT-4) | GI50 (A549) | GI50 (SK-MEL-5) | GI50 (NCI-H23) | GI50 (MDA-N) | GI50 (MDA-MB-231) | GI50 (HCC 2998) | GI50 (SR) | GI50 (SNB-19) | GI50 (T47D) | GI50 (SNB-75)
1 | Fc1ccccc1-c1cc(S)c2cc3c(cc2n1)OCO3 | 4.91 µM (inactive) | 7.93 µM (inactive) | 27.9 µM (inactive) | 13 µM (inactive) | 4.33 µM (inactive) | 28.6 µM (inactive) | 13.1 µM (inactive) | 34.2 µM (inactive) | > 45.7 µM (inactive) | 9.62 µM (inactive) | 5.52 µM (inactive) | 3.63 µM (inactive) | 9.55 µM (inactive) | 3.03 µM (inactive) | > 56.1 µM (inactive) | 5.53 µM (inactive) | 4.34 µM (inactive) | 15.2 µM (inactive) | 28.1 µM (inactive) | –
2 | CC1=CC(=O)CC(C)(C)C1/C=C/C(C)=C/C=C/C(C)=C/C=C/C=C(C)/C=C/C=C(C)/C=C/C1C(C)=CC(=O)CC1(C)C (configuration not stated) | 37.2 µM (inactive) | 31.3 µM (inactive) | > 100 µM (inactive) | > 100 µM (inactive) | 38.7 µM (inactive) | – | 37.2 µM (inactive) | – | 23.3 µM (inactive) | 50.1 µM (inactive) | – | 45.8 µM (inactive) | 36.3 µM (inactive) | 35.1 µM (inactive) | > 100 µM (inactive) | 53.1 µM (inactive) | 66.1 µM (inactive) | – | > 100 µM (inactive) | –
3 | COc1cccc(/N=C/c2cc(OC)c(OC)c(OC)c2)c1 | 33.2 µM (inactive) | > 100 µM (inactive) | > 75.7 µM (inactive) | > 100 µM (inactive) | > 100 µM (inactive) | 17.8 µM (inactive) | 3.58 µM (inactive) | > 100 µM (inactive) | > 100 µM (inactive) | > 72.1 µM (inactive) | > 100 µM (inactive) | 16.8 µM (inactive) | > 100 µM (inactive) | 25.8 µM (inactive) | > 100 µM (inactive) | > 88.9 µM (inactive) | > 23.1 µM (inactive) | – | 64.3 µM (inactive) | > 100 µM (inactive)
4 | C=CCC1(O)c2cccc(O)c2C(=O)c2c(O)cccc21 | 24.4 µM (inactive) | 45.9 µM (inactive) | 31.7 µM (inactive) | 29.9 µM (inactive) | 23.6 µM (inactive) | – | 21 µM (inactive) | – | 28.1 µM (inactive) | 29.3 µM (inactive) | 24 µM (inactive) | 29.4 µM (inactive) | 24.7 µM (inactive) | 9.93 µM (inactive) | 33.5 µM (inactive) | 17.5 µM (inactive) | 10.9 µM (inactive) | – | 23.3 µM (inactive) | 21.1 µM (inactive)
5 | CC(C)c1ccc(/C=C2\CSCC3=C2N=C(S)NC3c2ccc(C(C)C)cc2)cc1 (configuration not stated) | > 100 µM (inactive) | > 100 µM (inactive) | > 100 µM (inactive) | > 100 µM (inactive) | 85.1 µM (inactive) | > 100 µM (inactive) | 34.8 µM (inactive) | > 100 µM (inactive) | 68.5 µM (inactive) | 29.6 µM (inactive) | 80.9 µM (inactive) | 27.2 µM (inactive) | 46.5 µM (inactive) | > 100 µM (inactive) | > 100 µM (inactive) | 67.6 µM (inactive) | 53.3 µM (inactive) | > 100 µM (inactive) | 80.4 µM (inactive) | –
6 | CCOC(=O)C1C(c2ccc3c(c2)OCO3)c2c(n[nH]c2O)CC1(C)O (configuration not stated) | > 100 µM (inactive) | > 100 µM (inactive) | > 100 µM (inactive) | > 100 µM (inactive) | > 100 µM (inactive) | > 100 µM (inactive) | – | > 100 µM (inactive) | > 100 µM (inactive) | > 100 µM (inactive) | > 100 µM (inactive) | > 100 µM (inactive) | > 100 µM (inactive) | > 100 µM (inactive) | > 100 µM (inactive) | > 100 µM (inactive) | > 100 µM (inactive) | > 100 µM (inactive) | > 100 µM (inactive) | > 100 µM (inactive)
7 | C=C(C)C1(Sc2ccc(OC)cc2)CC1 | 25 µM (inactive) | 30.5 µM (inactive) | 79.1 µM (inactive) | 57.9 µM (inactive) | 29 µM (inactive) | 17.1 µM (inactive) | 14.9 µM (inactive) | 17.5 µM (inactive) | – | 13.8 µM (inactive) | 30.8 µM (inactive) | 14.6 µM (inactive) | 31.2 µM (inactive) | 15.6 µM (inactive) | 43.4 µM (inactive) | 14.5 µM (inactive) | 14.6 µM (inactive) | 45.4 µM (inactive) | 31.9 µM (inactive) | 21.9 µM (inactive)
8 | CC(=N\N=C\c1ccccn1)/C(C)=N/N=C(C)/C(C)=N/N=C/c1ccccn1 | > 100 µM (inactive) | > 100 µM (inactive) | > 100 µM (inactive) | > 100 µM (inactive) | > 100 µM (inactive) | > 100 µM (inactive) | – | > 100 µM (inactive) | > 100 µM (inactive) | – | > 100 µM (inactive) | > 100 µM (inactive) | > 100 µM (inactive) | > 100 µM (inactive) | > 100 µM (inactive) | > 100 µM (inactive) | > 100 µM (inactive) | > 100 µM (inactive) | > 100 µM (inactive) | > 100 µM (inactive)
9 | COc1ccc(C2(O)c3ccccc3C(=O)N(C)C2(O)c2ccc(OC)cc2)cc1 (configuration not stated) | 16.4 µM (inactive) | 28.6 µM (inactive) | 25.6 µM (inactive) | > 100 µM (inactive) | 52.7 µM (inactive) | 22.6 µM (inactive) | 55.8 µM (inactive) | > 100 µM (inactive) | 36.3 µM (inactive) | 24.7 µM (inactive) | 57.8 µM (inactive) | 99.1 µM (inactive) | > 100 µM (inactive) | 17.7 µM (inactive) | > 100 µM (inactive) | 49.3 µM (inactive) | 36.3 µM (inactive) | > 100 µM (inactive) | 52.4 µM (inactive) | –
10 | COc1ccc(NC(=S)N/N=C(\c2ccccc2)c2ccccn2)cc1 | 0.0479 µM (active) | < 0.01 µM (active) | 2.56 µM (inactive) | 0.568 µM (active) | < 0.0198 µM (active) | < 0.01 µM (active) | < 0.01 µM (active) | 0.052 µM (active) | 0.224 µM (active) | < 0.01 µM (active) | 0.128 µM (active) | 0.0432 µM (active) | < 0.01 µM (active) | 0.263 µM (active) | < 0.01 µM (active) | 2.42 µM (inactive) | < 0.01 µM (active) | 2.84 µM (inactive) | < 0.0317 µM (active) | –
11 | CN1[C@@H]2CC[C@H]1C[C@@H](OC(c1ccccc1)c1ccccc1)C2 [BENZTROPINE MESYLATE] | 17.2 µM (inactive) | 17 µM (inactive) | 14.7 µM (inactive) | 26.9 µM (inactive) | 15.5 µM (inactive) | 11.3 µM (inactive) | 13.1 µM (inactive) | 27.9 µM (inactive) | 12.4 µM (inactive) | 21 µM (inactive) | 16.9 µM (inactive) | 15.6 µM (inactive) | 27.3 µM (inactive) | 15.1 µM (inactive) | 17.5 µM (inactive) | – | 19.5 µM (inactive) | 22 µM (inactive) | 17.3 µM (inactive) | 17.3 µM (inactive)
